Measurements: US20190038628A1, “USE OF INHIBITORS OF THE ACTIVITY OR FUNCTION OF PI3K FOR THE TREATMENT OF PRIMARY SJOGREN'S SYNDROME” (Novartis AG, priority 2016, published 2019)
Several values for one entry are separate records, joined by “and”; a condition that tells them apart may be missing. Equal values may be shown once. Read-outs that look alike come from different tables or passages of the source.

Key:
[1] = test system: Human Peripheral Blood Mononuclear Cells (PBMC); assay: anti-IgM-Dextran-induced IP-10 production of human PBMC; format: cell-based; details: for IP-10 in culture supernatant: individual donors 1-6; for IP-10 in culture supernatant, mean: mean of 6 donors
From the text: For evaluating the effect of compound A on the production of chemokines relevant for the formation of germinal centers, PBMC were isolated from Buffy Coat (collected through Inter-Regionale Blutspende of the Swiss Red Cross) by standard Ficoll gradient centrifugation using Ficoll-Paque plus (GE healthcare #17-1440-03) in Leucosep tubes (Greiner Bio-one #227289). Cells were washed two times with PBS and then resuspended at 2.2×10^6/mL in RPMI 1640 medium supplemented with 10% FBS, Gentamycine (50 ug/ml), Insulin-Transferrin-Selenium and P-Mercaptoethanol (50 uM).
PBMC were dispensed to 48-well plates (Costar #3548) and incubated with pre-diluted compound A resulting in a dilution with a final concentration of 0.3, 1 or 3 uM. Control samples were pretreated with DMSO to obtain a final concentration of 0.03% DMSO. Samples were mixed thoroughly and incubated in a humified incubator at 37° C. for 1 h. Cells were thereafter stimulated by the addition of the TLR9 agonist ODN M362 (Invivogen, #tlrl-m362) at a final concentration of 30 ug/ml or anti-IgM-Dextran (Finabiosolution #0004) at a final concentration of 2 ug/ml. Control samples were left unstimulated. Samples were mixed thoroughly and incubated in a humified incubator at 37° C. for 24 h.
After the stimulation, culture supernatants were harvested and chemokines quantified by Bio-Plex Multiplex immunoassay (CXCL13; Bio Rad #171 BK12MR2) or MSD V-Plex assay (IP-10; Meso Scale Diagnostics) or according to the manufacturer's instructions.

[2] = test system: Akt-phosphorylation in IgM+ B cells; assay: Time-dependent inhibition of Akt-phosphorylation ex vivo by a single oral dose in rats; set-up: species or system Lewis rats; details: 10 mg/kg p.o. single dose; for inhibition at 10 mg/kg: Rattus norvegicus, B-cell, po; for % inhibition of pAkt in IgM+ B cells: rat, individual rats 1-4, 10 mg/kg
Protocol: All experiments were performed with adult male Lewis rats (LEW/Han/Hsd, Charles River, Germany and LEW/Orl@Rj, Janvier, France), weighing 220-280 g.
The suspension for administration was freshly prepared and stored in the dark at room temperature. 14.8 mg of compound A was suspended in 5.92 ml CMC 0.5% with 0.5% Tween80. The milky, homogeneous suspensions were then applied to the animal. The test substances were administered p.o. at in a volume of 4 ml/kg body weight resulting in an oral dose of 10 mg/kg.
Animals were anaesthetized with isoflurane using a Fluvac airflow system. Whole blood was collected sublingually pre-dose and at 1, 2, 4, 6, 8, 10, 12 and 24 hours post-dose. For pharmacodynamic analysis 100 μl rat blood was collected per time point in Eppendorf tubes with 30 IU sodium heparin (B. Braun, Melsungen, Germany; 5000 I.U./ml). For pharmacokinetic analysis 150 μl rat blood was collected per time point in EDTA coated Eppendorf (Milian cat# TOM-14) tubes.
For ex vivo analysis of blood from drug-treated animals, […] heparinized blood was mixed in 5 ml U-bottom tubes (BD, cat#352063) with […] of RPMI medium (Gibco, cat#31870) immediately after blood collection, and activated with 10 μl of anti-rat IgM/rIL-4 at a final concentration of anti-rat IgM of […] and rIL-4 of 10 ng/ml. Control samples were left unstimulated. Samples were mixed thoroughly and incubated for 10 minutes at 37° C. in the water bath.
After incubation, 2 ml of pre-warmed (37° C. in water bath) BD Phosflow Lyse/Fix buffer was added per tube. Samples were mixed thoroughly and incubated for 20 minutes at 37° C. in the water bath. Then samples were centrifuged at 400 g for 5 minutes. After centrifugation 2 ml of BD Phosflow Perm/wash buffer was added per tube. Samples were mixed thoroughly and incubated at room temperature (RT) in the dark for 10 minutes. Thereafter, the samples were snap-frozen on dry ice and then stored at −80° C. until FACS staining.
For thawing, all samples were incubated for 10 minutes in the water bath at 25° C. After centrifugation at 400 g for 5 minutes the pellets were washed with 2 ml of BD Phosflow Perm/wash buffer and again centrifuged at 400 g for 5 minutes. Supernatants were removed. For analysis of pAkt, samples were stained with PE-labeled anti-rat IgM (BD, cat#553888) to allow gating on B cells in FACS analysis. In addition, samples were stained with Alexa647 conjugated anti-phospho-Akt (Ser473; BD, cat#560343). Staining procedures were performed in a total volume of 100 μl BD Phosflow Perm/wash buffer at RT for 30 minutes in the dark. After incubation, samples were washed with 2 ml of BD Phosflow Perm/wash buffer and centrifuged at 400 g for 5 minutes and the pellets were resuspended in 300 μl BD Stain Buffer (BD, cat#554656). Samples were kept on ice until data were acquired on an LSRII flow cytometer (BD Biosciences) using DIVA software (version 6.1.2). Lymphocytes were gated in the FSC/SSC dot blot according to size and granularity and further analyzed for expression of IgM and phosphorylation of Akt. Data were calculated from dot blots or histograms as percentage of cells positively stained for Akt-phosphorylation within the IgM+ population.
The effects of the drugs ex vivo were expressed as inhibition of Akt-phosphorylation measured by flow cytometry. The percentage inhibition of Akt-phosphorylation was calculated by the following formula: […]
Group of four Lewis rats were treated with a single oral dose of 10 mg/kg of compound A. At indicated time points, 50% rat whole blood was stimulated with anti-rat IgM/rIL-4 and Akt-phosphorylation was determined as described in the Method section.

For `CCC(=O)N1CC[C@H](Nc2ncnc3c2CN(c2cnc(OC)c(C(F)(F)F)c2)CC3)C1` [Compound A, 1-{(S)-3-[6-(6-Methoxy-5-trifluoromethyl-pyridin-3-yl)-5,6,7,8-tetrahydro-pyrido[4,3-d]pyrimidin-4-ylamino]-pyrrolidin-1-yl}-propan-1-one], the “IP-10 in culture supernatant” value ([1]; Compound A 300 nM) was 79 pg/mL and 32 pg/mL and 37 pg/mL and 1233 pg/mL and 52 pg/mL and 2764 pg/mL, the “IP-10 in culture supernatant, mean” value ([1]; Compound A 300 nM) was 699 pg/mL and the “IP-10 in culture supernatant” value ([1]; Compound A 1000 nM) was 71 pg/mL and 29 pg/mL and 42 pg/mL and 1010 pg/mL and 52 pg/mL and 1624 pg/mL. For the same compound, the “IP-10 in culture supernatant, mean” value ([1]; Compound A 1000 nM) was 471 pg/mL, the “IP-10 in culture supernatant” value ([1]; Compound A 3000 nM) was 93 pg/mL and 27 pg/mL and 34 pg/mL and 899 pg/mL and 59 pg/mL and 715 pg/mL and the “IP-10 in culture supernatant, mean” value ([1]; Compound A 3000 nM) was 305 pg/mL. The inhibition at 0.3 µM ([1]; Homo sapiens, PBMC, Compound A 300 nM) was 12%, the inhibition at 1 µM ([1]; Homo sapiens, PBMC, Compound A 1000 nM) was 41% and the inhibition at 3 µM ([1]; Homo sapiens, PBMC, Compound A 3000 nM) was 62%. It also gave an inhibition at 10 mg/kg ([2]; 0 h, time 0 h (pre-dose), mean of four animals, read-out: % inhibition of pAkt in IgM+ B cells, Average) of 0%, an inhibition at 10 mg/kg ([2]; 1 h, time 1 h, individual rats 1-4, read-out: % inhibition of pAkt in IgM+ B cells) of 100% and an inhibition at 10 mg/kg ([2]; 1 h, time 1 h, mean of four animals, read-out: % inhibition of pAkt in IgM+ B cells, Average) of 98.2%. It also gave an inhibition at 10 mg/kg ([2]; 2 h, time 2 h, individual rats 1-4, read-out: % inhibition of pAkt in IgM+ B cells) of 101%, an inhibition at 10 mg/kg ([2]; 2 h, time 2 h, mean of four animals, read-out: % inhibition of pAkt in IgM+ B cells, Average) of 99.6% and an inhibition at 10 mg/kg ([2]; 4 h, time 4 h, mean of four animals, read-out: % inhibition of pAkt in IgM+ B cells, Average) of 95.1%. The inhibition at 10 mg/kg ([2]; 6 h, time 6 h, mean of four animals, read-out: % inhibition of pAkt in IgM+ B cells, Average) was 88.2%, the inhibition at 10 mg/kg ([2]; 8 h, time 8 h, mean of four animals, read-out: % inhibition of pAkt in IgM+ B cells, Average) was 79.4% and the inhibition at 10 mg/kg ([2]; 10 h, time 10 h, individual rats 1-4, read-out: % inhibition of pAkt in IgM+ B cells) was 69%. The inhibition at 10 mg/kg ([2]; 10 h, time 10 h, mean of four animals, read-out: % inhibition of pAkt in IgM+ B cells, Average) was 70.7%, the inhibition at 10 mg/kg ([2]; 12 h, time 12 h, individual rats 1-4, read-out: % inhibition of pAkt in IgM+ B cells) was 74.3% and the inhibition at 10 mg/kg ([2]; 12 h, time 12 h, mean of four animals, read-out: % inhibition of pAkt in IgM+ B cells, Average) was 72.1%. For the same compound, the inhibition at 10 mg/kg ([2]; 24 h, time 24 h, mean of four animals, read-out: % inhibition of pAkt in IgM+ B cells, Average) was 30.2%, the “% inhibition of pAkt in IgM+ B cells” value ([2]; time 0 h (pre-dose)) was −2.0% and 15.7% and 6.9% and −20.6% and the “% inhibition of pAkt in IgM+ B cells” value ([2]; time 1 h) was 95.6% and 99.1%. The “% inhibition of pAkt in IgM+ B cells” value ([2]; time 2 h) was 97.3% and 101.8%, the “% inhibition of pAkt in IgM+ B cells” value ([2]; time 4 h) was 93.8% and 105.3% and 81.4% and the “% inhibition of pAkt in IgM+ B cells” value ([2]; time 6 h) was 76.1% and 99.1% and 94.7% and 83.1%. For the same compound, the “% inhibition of pAkt in IgM+ B cells” value ([2]; time 8 h) was 83.1% (2×) and 85.8% and 65.4%, the “% inhibition of pAkt in IgM+ B cells” value ([2]; time 10 h) was 76.9% and 62.7% and the “% inhibition of pAkt in IgM+ B cells” value ([2]; time 12 h) was 71.6% and 73.4%. For the same compound, the “% inhibition of pAkt in IgM+ B cells” value ([2]; time 24 h) was 30.8% and 40.6% and 37.0% and 12.2%.
